# Test results from US20140024683A1, “CHLORIDE CHANNEL AND CHLORIDE TRANSPORTER MODULATORS FOR THERAPY IN SMOOTH MUSCLE DISEASES” (priority 2011, published 2014).
# “And” between values parts separate entries of the source, which are not always exact repeats. Identical values can stand only once. Counter-ions that a name gives are not always drawn. Like-named read-outs stand apart in the source and are kept apart here.
# Tests used:
# rat lung slices = assay: Airway lumen area in peripheral small airways of rat lung slices; conditions: contractile agonists
# Method: The measurement of airway contraction of a luminal area of small lung airways using the ex vivo rat lung slice method was performed as described (Perez-Zoghbi et al., 2007). The trachea was cannulated with an intravenous catheter, and after the chest cavity was opened, the collapsed lungs were reinflated with 1.3±0.1 ml of 2% agarose (low-gelling temperature) in Sigma-Hanks' Balanced Salt solution (sHBSS), followed by the injection of 0.2±0.1 of air to flush the agarose-sHBSS out of the airways and into the distal alveolar space. Subsequently, a warm (37° C.) solution of gelatin (type A, porcine skin, 300 bloom, 6% in sHBSS) was perfused through the intrapulmonary blood vessels via the pulmonary artery by injecting about 0.3 ml into the right ventricle. The warm agar and gelatin were gelled with cold sHBSS. A single lung lobe was removed and cut into serial sections of about 130 μm thick with a vibratome at about 4° C., starting at the lung periphery. Slices were maintained in DMEM (Invitrogen) at 37° C. and 10% CO2 for up to 3 days. At 37° C., the gelatin in the blood vessel lumen dissolved, leaving the blood vessel lumen empty. Lung slices were mounted in a custom-made perfusion chamber and held in place with a small sheet of nylon mesh. A second cover glass edged with silicone grease was placed over the lung slice. Perfusion of the lung slice was performed using a gravity-fed perfusion system. The volume of the chamber was about 100 μl with a perfusion rate of about 800 μl/min. […] Digital images were recorded in time lapse (30 frames/min). The area of the bronchiole and arteriole lumen was calculated, from each image, by pixel summing using custom-written software. Experiments were performed at room temperature.
# [1] = tested on: human airway smooth muscle cells; assay: FLIPR potentiometric dye membrane potential assay (Examples 9, 12); type: cell-based; conditions: 10 μM
# Method: To determine whether blockade of CaCCs or NKCCs induce membrane potential changes in cultured human airway smooth muscle cells, the FLIPR in vitro fluorescent dye assay (Molecular Devices) was used as described by Wafford et al. (2009). Briefly, human airway smooth muscle cells were grown to 100% confluence in 96-well black-walled plates and were washed with warmed (37° C.) normal-chloride buffer [consisting of (in mM) 130 sodium chloride, 2 CaCl2, 1 MgCl2, 10 D-glucose, and 10 HEPES, pH 7.4] four times. A stock solution (100% dye) of FLIPR blue dye (Molecular Devices) was prepared by reconstitution of 1 vial (125 mg) with 100 ml of the normal-chloride buffer (assay buffer). A 50% working stock was prepared by further diluting the reconstituted blue dye 1:1 with assay buffer and was used to load cells (90 μl/well) over 20 minutes at 37° C. All reagents were dissolved in assay buffer. Baseline fluorescence was measured for 3 minutes prior to the first control additions (assay buffer). […] The fluorescence produced by membrane potential change following solution additions was quantified after subtracting changes induced by assay buffer alone.
# [2] = tested on: human airway smooth muscle cells; assay: FLIPR membrane potentiometric dye assay (Example 21); type: cell-based
# Method: Immortalized airway smooth muscle cell lines modified to stably express human telomerase reverse transcriptase were a kind gift from Dr. William Gerthoffer (University of Southern Alabama, Mobile, Ala.) prepared as described previously (Gosens et al., 2006) and grown in Dulbecco's Modified Eagle's Medium/F12 media (GIBCO, Grand Island, N.Y.), with 10% FBS and antibiotics.
# Immortalized human airway smooth muscle cells were cultured on black-walled 96 well plates to 100% confluence, and were washed four times with warmed (37° C.) assay buffer of the following composition (in mM): NaCl 140, KCl 4.7, CaCl2 2.5, MgCl2 1.2, HEPES 11, D-glucose 10. A stock solution (100% dye) of FLIPR blue dye was prepared by reconstitution of 1 vial (125 mg) with 100 ml assay buffer. A 50% working stock was prepared by further diluting the reconstituted blue dye 1:1 with assay buffer and was used to load cells (90 μl/well) over 45 min at 37° C. in a humidified cell culture incubator (95% air/5% CO2). All reagents were dissolved in assay buffer. Fluorescence was measured with a Flex Station 3 (Molecular Devices) using an excitation wavelength of 530 nm, emission wavelength of 565 nm and a cutoff filter of 550 nm. Baseline fluorescence was measured every 2 seconds for 1 minute then for 2 minutes after injection of vehicle or compound of interest as indicated (using the Flexstation's 3 integrated injection capabilities).
# Human airway smooth muscle cells were incubated with FLIPR membrane potentiometric dye to assess if the chloride channel blockers changed membrane potential at the cellular level. FLIPR fluorescence will increase with depolarization, and decrease with hyperpolarization. […] Therefore, chloride channel blockade, but not NKCC blockade, hyperpolarized human airway smooth muscle cells.
# [3] = tested on: human airway smooth muscle cells; assay: MQAE fluorescence assay of intracellular chloride; type: cell-based; conditions: 10 mM TEA-acetate
# Method: To determine whether blockade of CaCCs or NKCCs induce changes in intracellular chloride concentrations in human airway smooth muscle cells, the MQAE in vitro fluorescent dye assay (Invitrogen) was used. Briefly, human airway smooth muscle cells were grown to 100% confluence in 96-well black-walled plates. Cells were loaded overnight with 10 mM MQAE in serum-free basal cell culture medium (M199, Invitrogen) and were washed once with warmed (37° C.) normal-chloride buffer [consisting of (in mM) 130 sodium chloride, 2 CaCl2, 1 MgCl2, 10 D-glucose, and 10 HEPES, pH 7.4]. […] An increase in fluorescence represents decreased intracellular chloride (removal of halide quenching of MQAE) while decreased fluorescence represents increased intracellular chloride (enhanced halide quenching of MQAE).
# [4] = tested on: guinea pig tracheal rings; assay: Relaxation of potassium gluconate contraction in guinea pig tracheal rings; conditions: 100 μM; 80 mM potassium gluconate
# Method: (§1) Animal protocols were approved by the Columbia University Animal Care and Use Committee. Male Hartley guinea pigs weighing approximately 400 g were anesthetized with intraperitoneal injection of sodium pentobarbital (100 mg/kg). Trachea were removed and transferred to ice cold Krebs-Henseleit (KH) buffer of the following composition (in mM): NaCl 118, KCl 5.6, CaCl2 0.5, MgSO4 0.24, NaH2PO4 1.3, NaHCO3 25, glucose 5.6, pH 7.4. Epithelial-denuded tracheal rings were prepared using a dissecting microscope. Epithelium was removed by gently passing cotton fibers through the lumen of the tracheal rings. The rings were suspended in 4 mL-water jacketed organ baths (37° C.: Radnoti Glass Technology, Monrovia, Calif.) and connected to a Grass FT03 force transducer (Grass Telefactor, West Warwick, R.I.) using silk sutures. The transducers were coupled to the computer with BioPac hardware and data was collected using Acqknowledge 7.3.3 software (BioPac Systems, Goleta, Calif.). KH buffer was bubbled with a gas mixture of 95% oxygen and 5% carbon dioxide and buffer was exchanged every 15 minutes for 1 hour during equilibration of tracheal rings at 1 g resting tension. […].
# Many chloride channel blockers are known to also stimulate potassium channels (Greenwood et al., 2007). Thus, we performed additional studies in the presence of a large extracellular concentration of potassium to ensure that our findings of compound 1 or 13 inhibiting a TEA-induced depolarizing contraction were not due to these compounds opening a potassium channel.
# [5] = tested on: guinea pig tracheal rings; assay: Relaxation of TEA contraction in guinea pig tracheal rings (Example 16, library screen); conditions: 10 mM TEA
# Method: as §1
# [6] = tested on: human airway smooth muscle; assay: Relaxation of acetylcholine contraction in human airway smooth muscle strips; conditions: 100 μM alone; EC50 acetylcholine
# Method: Studies using de-identified human tissue were reviewed by the Columbia University Institutional Review Board and deemed not human subjects research. Tissues were obtained from healthy, normal organ donor discarded surgical waste subsequent to lung transplant surgery. Tissues were collected after transplant and placed in DMEM media (GIBCO) and bubbled overnight in 5% carbon dioxide and 95% oxygen at 4° C. The following morning, the smooth muscle tissue was carefully dissected under a dissecting microscope and the epithelium removed. The strips were anchored in the organ bath as described above using KH buffer of the same composition. The strips were allowed to equilibrate for 1 hour with buffer exchanges every 15 minutes and were treated with 10^−6 M tetrodotoxin, 10^−5 M pyrilamine, and 10^−5
# M MK571. Strips were contracted with an EC50 dose of acetylcholine (Ach)
# This experiment was then repeated with human airway smooth muscle to investigate clinical relevance as a model of bronchospasm in humans.
# [7] = tested on: guinea pig tracheal rings; assay: Organ bath muscle force, TEA-induced contraction of guinea pig tracheal rings (Examples 1, 4, 13); conditions: for relaxation of TEA-induced contraction: 10 mM TEA
# Method: Epithelial denuded guinea pig tracheal rings were suspended in organ baths under 1 g resting tension with continuous digital recordings of muscle force. In separate studies, guinea pig airway smooth muscle cells were enzymatically dispersed and cultured.
# Human muscle tissue was acquired from excess lung airways trimmed during surgery from healthy lung transplant donors. Acquired tissue was stored overnight at […]. Airway smooth muscle contractions measured ex vivo in organ baths were performed as previously described (Gallos et al., 2008; Gallos et al., 2009, Gallos et al., 2011; Gleason et al., 2010; Yim et al., 2011; Mitzuta et al., 2008). Closed guinea pig tracheal rings or strips of human airway smooth muscle (tracheal or main stem bronchus) were suspended in organ baths, which had 95% oxygen constantly perfusing through Dulbecco's Modified Eagle Medium. Rings were cut on the cartilaginous borders of the smooth muscle. The epithelial layer was dissected under microscopic assistance. Briefly, tissues were suspended in a water-jacketed (37° C.) 2-ml organ bath (Radnoti Glass Technology, Monrovia, Calif.) and attached to a Grass FT03 force transducer (Grass Telefactor, West Warwick, R.I.) coupled to a computer via BioPac hardware and Acqknowledge 7.3.3 software (Biopac Systems, Goleta, Calif.). Kreb's-Henseleit (KH) buffer was continuously bubbled with 95% oxygen and 5% carbon dioxide and tissues were allowed to equilibrate at 1 g (guinea pig) or 1.5 g (human) isotonic force for 1 hour with fresh KH buffer changes every 15 minutes.
# Following equilibration, in guinea pig experiments, the capsaicin analog N-vanillylnonanamide (10 μM final) was added to the organ baths to first activate and then deplete nonadrenergic, noncholinergic nerves. […]. In experiments with human tissue, no vanillylnonanamide pretreatment was done. To avoid bias between treatment groups, tissues were contracted to individually calculated EC50 values for acetylcholine and tissues with similar Emax values were randomly assigned to treatments within individual experiments. Following extensive KH buffer changes (8-9 times) tissues were allowed to stabilize at isotonic resting tension (about 1.0 g). To remove confounding effects of other procontractile pathways, each bath received a complement of antagonists 20 minutes prior to subsequent contractile challenge. The antagonists included pyrilamine (10 μM; H1 histamine receptor antagonist), and tetrodotoxin (1 μM; blocker of endogenous cholinergic or C-fiber neuronal effects) in guinea pig experiments or pyrilamine and 10 μM MK571 (leukotriene receptor antagonist) in human tissue experiments. […]
# Airway smooth muscle contractions measured ex vivo in organ baths were performed as set forth above. […]
# [8] = tested on: guinea pig tracheal rings; assay: Potentiation of isoproterenol relaxation of acetylcholine contraction, guinea pig tracheal rings; conditions: Cavia porcellus, read-out: EC50 of isoproterenol-mediated relaxation of an acetylcholine contraction
# Method: as §1
# Therefore, we tested whether the chloride channel blockers or modulation of chloride flux could be used in combination with β-agonists to potentiate their effects. […]. Therefore, a combination of treatment with compound 13 and bumetanide potentiated the relaxation effect of isoproterenol.
structure (smiles),measurement,setting,value
"[Cl-].[K+] [KCl, potassium chloride]",percent decrease in lumen area compared to rest,rat lung slices,significant decrease in lumen area
O=c1[nH]c2cc(C(F)(F)F)ccc2n1-c1cc(C(F)(F)F)ccc1O [NS1619],membrane potential change (FLIPR),[1],positive control for hyperpolarization
same,"membrane potential, continuous fluorescence recording (representative tracing)",[2],hyperpolarize
"CC(=O)[O-].CC[N+](CC)(CC)CC [TEA-acetate, tetraethylammonium (TEA)-acetate]",intracellular chloride (MQAE fluorescence),[3],decreased intracellular chloride concentrations
"O=C(O)c1cc(Cl)ccc1NCc1ccc(Cl)cc1 [compound 1, 5-chloro-2-((4-chlorobenzyl)amino)benzoic acid]",percent of potassium gluconate-induced contraction at 30 minutes,[4],61.46%±6.3 and 61.5%±6.3
same,percent of the TEA-induced contraction remaining at 15 minutes,[5]; 100 μM,23.8±14.9%
same,relaxed fraction of a TEA-induced contraction at 15 minutes after drug addition,[5]; 100 μM,76.2%
same,relaxation of TEA-induced contraction (screen of 20-compound chloride channel blocker library),[5],most potently relax
same,time to complete relaxation of TEA contraction,[5]; representative tracing,≤ 15 min
same,relaxation of acetylcholine contraction,[6],45.4%±6.3
same,"membrane potential, continuous fluorescence recording (representative tracing)",[2],hyperpolarize
same,"change in relative fluorescent units (membrane potential, FLIPR)","[2]; 100 μM, n=12",−240.3+/−35 RFU
NS(=O)(=O)c1cc(C(=O)O)c(NCc2ccco2)cc1Cl [furosemide],relaxation of TEA-induced contraction,[7]; 300 μM furosemide,77.6%
CC(C)NCC(O)c1ccc(O)c(O)c1 (stereo not shown) [isoproterenol],EC50,[8]; vehicle,5.99 nM
same,EC50,[8]; with 10 μM bumetanide,2.51 nM
same,EC50,[8]; with 50 μM compound 13,2.7 nM
same,EC50,[8]; with 50 μM compound 13 and 10 μM bumetanide,0.477 nM
COC(=O)C1=C(C)NC(C)=C(C(=O)OC)C1c1ccccc1[N+](=O)[O-] [nifedipine],relaxation of TEA-induced contraction,[7]; 10 μM nifedipine,111%
"O=C(O)c1cccnc1Nc1cccc(C(F)(F)F)c1 [water-soluble NFA, sodium salt of niflumic acid]",potency at relaxing airway smooth muscle (muscle force at 60 minutes as a percent of initial force after TEA treatment),"[7]; 10 μM, water soluble form compared to hydrophobic parent NFA",enhanced potency
